Source: patent US9365522B2, “Pyrazole amide derivative” (AMGEN INC., priority 2015, dated 2016)

target: T1, human RORγ-LBD (Homo sapiens, UniProt P51449); assay: ROR gamma coactivator peptide recruitment Alphascreen assay (RORγ-LBD binding to GRIP1 coactivator peptide); assay type: biochemical; conditions: 5 nM human RORγ-LBD, 30 nM 7-β-hydroxycholesterol, 50 nM biotinylated GRIP1 coactivator peptide, overnight incubation at room temperature; read-out: result (pIC50, RORγ coactivator peptide recruitment Alphascreen assay) (converted)
T1 construct: made in house; host or cells: E. coli (BL-21)
T1 sequence (P51449 262-518): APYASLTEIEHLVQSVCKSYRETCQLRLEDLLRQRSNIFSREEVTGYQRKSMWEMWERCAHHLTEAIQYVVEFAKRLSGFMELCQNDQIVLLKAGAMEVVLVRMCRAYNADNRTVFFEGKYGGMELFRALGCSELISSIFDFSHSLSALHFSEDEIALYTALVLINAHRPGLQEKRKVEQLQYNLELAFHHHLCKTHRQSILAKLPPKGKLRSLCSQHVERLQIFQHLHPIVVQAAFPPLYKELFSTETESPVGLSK
Method in brief: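 His/Flag-tagged human RORγ-LBD (aa 262-518, E. coli-expressed, 5 nM) with agonist 7-β-hydroxycholesterol (30 nM) and biotinylated GRIP1 LXXLL peptide (50 nM) in HEPES pH 7.4 buffer, 2.5% DMSO. Compound 1-in-2 dilutions; Alphascreen bead signal read after overnight incubation at room temperature; pIC50 calculated.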

| IC50 | SMILES |
| --- | --- |
| 89.1 nM | O=C(CN(Cc1ccc(F)cc1)C(=O)c1cnn([C@H]2CC[C@H](C(=O)O)CC2)c1C(F)(F)F)c1c(Cl)cnc2ccccc12 [Example 539, trans-4-(4-((2-(3-chloro-4-quinolinyl)-2-oxoethyl)(4-fluorobenzyl)carbamoyl)-5-(trifluoromethyl)-1H-pyrazol-1-yl)cyclohexanecarboxylic acid] |
| 6.17 nM | CC(C)(C)CN(CC(=O)c1c(Cl)cncc1Cl)C(=O)c1cnn([C@H]2CC[C@@]3(C(=O)O)CCC[C@H]3C2)c1C(F)(F)F [Example 876, (3aS,6S,7aS )-6-(4-((2-(3,5-dichloropyridin-4-yl)-2-oxoethyl)(neopentyl)carbamoyl)-5-(trifluoromethyl)-1H-pyrazol-1-yl)octahydro-1H-indene-3a-carboxylic acid] |
| 13.5 nM | C[C@H]1C[C@H](n2ncc(C(=O)N(CC(=O)c3c(Cl)cncc3Cl)CC(C)(C)C)c2C(F)(F)F)CC[C@H]1C(=O)O [Example 738] |
| 11.2 nM | CC1(C)CCC(CN(CCc2c(Cl)cncc2Cl)C(=O)c2cnn([C@H]3CC[C@H](C(=O)O)CC3)c2C(F)(F)F)CC1 [Example 546, trans-4-(4-((2-(3,5-dichloro-4-pyridinyl)ethyl)((4,4-dimethylcyclohexyl)methyl)carbamoyl)-5-(trifluoromethyl)-1H-pyrazol-1-yl)cyclohexanecarboxylic acid] |
| 372 nM | C[C@H]1C[C@H](n2ncc(C(=O)N(CCC(F)(F)F)CC(=O)c3c(Cl)cncc3Cl)c2C(F)(F)F)CC[C@H]1C(=O)O [Example 767, (1R,2S,4R)-4-(4-((2-(3,5-dichloro-4-pyridinyl)-2-oxoethyl)(3,3,3-trifluoropropyl)carbamoyl)-5-(trifluoromethyl)-1H-pyrazol-1-yl)-2-methylcyclohexanecarboxylic acid] |
| 79.4 nM | Cc1cc(Cl)c(C(=O)CN(CC(C)(C)C)C(=O)c2cnn([C@H]3CC[C@H](C(=O)O)CC3)c2C(F)(F)F)c(Cl)n1 [Example 542, trans-4-(4-((2-(2,4-dichloro-6-methyl-3-pyridinyl)-2-oxoethyl)(2,2-dimethylpropyl)carbamoyl)-5-(trifluoromethyl)-1H-pyrazol-1-yl)cyclohexanecarboxylic acid] |
| 2.4 nM | CC1(C)[C@@H]2C[C@H](N(CC(=O)c3c(Cl)cccc3Cl)C(=O)c3cnn([C@H]4C[C@@H](CC(=O)O)C4)c3C(F)(F)F)C[C@@H]21 [Example 846, (cis-3-(4-((2-(2,6-dichlorophenyl)-2-oxoethyl)((1R,3r,5S)-6,6-dimethylbicyclo[3.1.0]hex-3-yl)carbamoyl)-5-(trifluoromethyl)-1H-pyrazol-1-yl)cyclobutyl)acetic acid] |
| 42.7 nM | CC(C)(C)CN(CC(=O)c1c(Cl)cncc1Cl)C(=O)c1cnn([C@H]2C[C@@H]3[C@H](C2)[C@@H]3C(=O)O)c1C(F)(F)F [Example 770, (1R,3r,5S,6s)-3-(4-((2-(3,5-dichloro-4-pyridinyl)-2-oxoethyl)(2,2-dimethylpropyl)carbamoyl)-5-(trifluoromethyl)-1H-pyrazol-1-yl)bicyclo[3.1.0]hexane-6-carboxylic acid] |
| 34.7 nM | C[C@H](C(=O)O)[C@H]1CC[C@@H](n2ncc(C(=O)N(CC(=O)c3c(Cl)cncc3Cl)Cc3cc(F)cc(F)c3)c2C(F)(F)F)CC1 [Example 786, 2-(cis-4-(4-((2-(3,5-dichloro-4-pyridinyl)-2-oxoethyl)(3,5-difluorobenzyl)carbamoyl)-5-(trifluoromethyl)-1H-pyrazol-1-yl)cyclohexyl)propanoic acid] |
| 7.76 nM | C[C@@H]1C[C@H](n2ncc(C(=O)N(CC(=O)c3c(Cl)cncc3Cl)CC(C)(C)C)c2C(F)(F)F)CC[C@@]1(C)C(=O)O [Example 874, (1R,2R,4R)-4-(4-((2-(3,5-dichloro-4-pyridinyl)-2-oxoethyl)(2,2-dimethylpropyl)carbamoyl)-5-(trifluoromethyl)-1H-pyrazol-1-yl)-1,2-dimethylcyclohexanecarboxylic acid] |
| 6.03 nM | CC(C)(C)CN(CC(=O)c1c(Cl)cncc1Cl)C(=O)c1cnn([C@H]2CC[C@H](CC(=O)O)CC2)c1C(F)(F)F [Example 719, (trans-4-(4-((2-(3,5-dichloro-4-pyridinyl)-2-oxoethyl)(2,2-dimethylpropyl)carbamoyl)-5-(trifluoromethyl)-1H-pyrazol-1-yl)cyclohexyl)acetic acid] |
| 21.9 nM | C[C@]1(C(=O)O)CC[C@H](n2ncc(C(=O)N(CCC3CC3)CC(=O)c3c(Cl)cncc3Cl)c2C(F)(F)F)CC1 [Example 776, trans-4-(4-((2-cyclopropylethyl)(2-(3,5-dichloro-4-pyridinyl)-2-oxoethyl)carbamoyl)-5-(trifluoromethyl)-1H-pyrazol-1-yl)-1-methylcyclohexanecarboxylic acid] |
| 36.3 nM | CC1(C)CC[C@@H](CN(CC(=O)c2c(Cl)cncc2Cl)C(=O)c2cnn([C@H]3CC[C@](C)(C(=O)O)CC3)c2C(F)(F)F)O1 [Example 673, trans-4-(4-((2-(3,5-dichloro-4-pyridinyl)-2-oxoethyl)(((2S)-5,5-dimethyltetrahydro-2-furanyl)methyl)carbamoyl)-5-(trifluoromethyl)-1H-pyrazol-1-yl)-1-methylcyclohexanecarboxylic acid] |
| 17.4 nM | C[C@@H]1C[C@@H](n2ncc(C(=O)N(CC(=O)c3c(Cl)cncc3Cl)CC3(C)CC3)c2C(F)(F)F)CC[C@@H]1C(=O)O [Example 788, (1S,2R,4S)-4-(4-((2-(3,5-dichloro-4-pyridinyl)-2-oxoethyl)((1-methylcyclopropyl)methyl)carbamoyl)-5-(trifluoromethyl)-1H-pyrazol-1-yl)-2-methylcyclohexanecarboxylic acid] |
| 302 nM | O=C(c1cnn([C@H]2CC[C@@H](C(=O)O)CC2)c1C(F)(F)F)N(CCc1c(Cl)cncc1Cl)[C@@H]1CCC12CCC2 [Example 621, cis-4-(4-((2-(3,5-dichloro-4-pyridinyl)ethyl)((1R)-spiro[3.3]hept-1-yl)carbamoyl)-5-(trifluoromethyl)-1H-pyrazol-1-yl)cyclohexanecarboxylic acid] |
| 10.5 nM | C=CCC1(CC=C)C[C@H](Cc2c(Cl)cncc2Cl)N(C(=O)c2cnn([C@H]3CC[C@](C)(C(=O)O)CC3)c2C(F)(F)F)C1 [Example 618, trans-4-(4-(((2R)-2-((3,5-dichloro-4-pyridinyl)methyl)-4,4-di(2-propen-1-yl)-1-pyrrolidinyl)carbonyl)-5-(trifluoromethyl)-1H-pyrazol-1-yl)-1-methylcyclohexanecarboxylic acid] |
| 21.9 nM | CC(C)(F)CN(CC(=O)c1c(Cl)cncc1Cl)C(=O)c1cnn([C@H]2C[C@@]3(C[C@H](C(=O)O)C3)C2)c1C(F)(F)F (some centres unmarked) [Example 847, (4s)-6-(4-((2-(3,5-dichloro-4-pyridinyl)-2-oxoethyl)(2-fluoro-2-methylpropyl)carbamoyl)-5-(trifluoromethyl)-1H-pyrazol-1-yl)spiro[3.3]heptane-2-carboxylic acid] |
| 63.1 nM | COC(CN(CC(C)(C)C)C(=O)c1cnn([C@H]2CC[C@H](C(=O)O)CC2)c1C(F)(F)F)c1c(Cl)cc(C)cc1Cl (relative stereo) [Example 529, trans-4-(4-(((2R/S)-2-(2,6-dichloro-4-methylphenyl)-2-methoxyethyl)(2,2-dimethylpropyl)carbamoyl)-5-(trifluoromethyl)-1H-pyrazol-1-yl)cyclohexanecarboxylic acid] |
| 204 nM | CC1(CN(CCc2c(Cl)cncc2Cl)C(=O)c2cnn([C@H]3CC[C@@H](C(=O)O)CC3)c2C(F)(F)F)CC1 [Example 563, cis-4-(4-((2-(3,5-dichloro-4-pyridinyl)ethyl)((1-methylcyclopropyl)methyl)carbamoyl)-5-(trifluoromethyl)-1H-pyrazol-1-yl)cyclohexanecarboxylic acid] |
| 2.4 nM | Cc1cc(Cl)c(C(=O)CN(CC2CC3(CC3)C2)C(=O)c2cnn([C@H]3CC[C@](C)(C(=O)O)CC3)c2C(F)(F)F)c(Cl)c1 [Example 583, trans-4-(4-((2-(2,6-dichloro-4-methylphenyl)-2-oxoethyl)(spiro[2.3]hex-5-ylmethyl)carbamoyl)-5-(trifluoromethyl)-1H-pyrazol-1-yl)-1-methylcyclohexanecarboxylic acid] |
| 18.6 nM | O=C(CN(CC1(F)CCCC1)C(=O)c1cnn([C@H]2C[C@@H]3[C@H](C2)[C@@H]3C(=O)O)c1C(F)(F)F)c1c(Cl)cccc1Cl [Example 769, (1R,3r,5S,6s)-3-(4-((2-(2,6-dichlorophenyl)-2-oxoethyl)((1-fluorocyclopentyl)methyl)carbamoyl)-5-(trifluoromethyl)-1H-pyrazol-1-yl)bicyclo[3.1.0]hexane-6-carboxylic acid] |
| 4.37 nM | CC(C)(C)CN(CC(=O)c1c(Cl)ccc(F)c1Cl)C(=O)c1cnn([C@H]2CC[C@](C)(C(=O)O)CC2)c1C(F)(F)F [Example 764, trans-4-(4-((2-(2,6-dichloro-3-fluorophenyl)-2-oxoethyl)(2,2-dimethylpropyl)carbamoyl)-5-(trifluoromethyl)-1H-pyrazol-1-yl)-1-methylcyclohexanecarboxylic acid] |
| 17 nM | C[C@]1(C(=O)O)CC[C@H](n2ncc(C(=O)N(CC(=O)c3c(Cl)cncc3Cl)C[C@]34CC[C@H](CC3)O4)c2C(F)(F)F)CC1 [Example 853, trans-4-(4-((2-(3,5-dichloro-4-pyridinyl)-2-oxoethyl)((1s,4s)-7-oxabicyclo[221]hept-1-ylmethyl)carbamoyl)-5-(trifluoromethyl)-1H-pyrazol-1-yl)-1-methylcyclohex anecarboxylic acid] |
